Columns and labels:
[1] = Odor threshold and odor value of perfuming compounds (Tables 4 to 10)
[2] = Volatility of perfuming compounds (Tables 4 to 10), with top/middle/bottom note type; type: physicochemical
Protocol: In some aspects, the first perfume accord comprises perfuming compounds having a volatility ranging from 70,000 to 100 μg/l in air. In some aspects, perfuming compounds having a volatility ranging from 70,000 to 100 μg/l in air are referred to as “top notes”.
In some aspects, the second perfume accord comprises perfuming compounds having a volatility ranging from 99 to 50 μg/l in air. In some aspects, perfuming compounds having a volatility ranging from 99 to 50 μg/l in air are referred to as “middle notes”.
In some aspects, the third perfume accord comprises perfuming compounds having a volatility ranging from 49 to 0.1 μg/l in air. In some aspects, perfuming compounds having a volatility ranging from 49 to 0.1 μg/l in air are referred to as “bottom notes”.
Tables 4 to 10 describe top, middle and bottom note perfuming compounds for watery, green, fruity, citrus, sweet, gourmand and woody notes respectively.

[3] = Table 10, perfuming compounds having a woody note, note type by volatility
[4] = perfuming compounds having a green note
[5] = note type (Top/Middle/Bottom) by volatility, perfuming compounds having a green note
[6] = Table 8, perfuming compounds having a sweet note
[7] = Table 9, perfuming compounds having a gourmand note, note type by volatility
[8] = Table 4, watery note, equals volatility divided by odor threshold
[9] = Table 7, citrus note, equals volatility divided by odor threshold
[10] = Table 4, watery note, top, middle or bottom note
[11] = Table 7, citrus note, top, middle or bottom note
[12] = Table 6, perfuming compounds having a fruity note
[13] = Table 6, perfuming compounds having a fruity note, note type by volatility

| Molecule | Odor Threshold ([1]; Table 10, woody note) | Type [2, 3] | Volatility ([2]; Table 10, woody note) | Odor Threshold (μg/l air) ([1]; Table 4, watery note) | Odor Value [1, 8] | Volatility (μg/l air) ([2]; Table 4, watery note) | Type [2, 10] | other results |
| --- | --- | --- | --- | --- | --- | --- | --- | --- |
| CC1C(C)(C)C2=C(C(=O)CCC2)C1(C)C (stereo not shown) | 4.57E−03 μg/l air | Bottom | 29.81 μg/l air | – | – | – | – | – |
| CC1CC(C)(C)OC(Cc2ccccc2)O1 (stereo not shown) | – | – | – | – | – | – | – | Odor Threshold (μg/l air) [1, 4]: 5.26E−02 μg/l air; Type [2, 5]: Bottom; Volatility (μg/l air) [2, 4]: 29.99 μg/l air |
| COc1nccnc1CCCC(C)C | – | – | – | – | – | – | – | Odor Threshold (μg/l air) [1, 4]: 1.18E−07 μg/l air; Type [2, 5]: Top; Volatility (μg/l air) [2, 4]: 195.24 μg/l air |
| CC(=O)OCCC1=CCC2CC1C2(C)C (stereo not shown) | 1.10E−01 μg/l air | Middle | 60.02 μg/l air | – | – | – | – | – |
| CC1(C)CC=C(CCC=O)CC1 | – | – | – | – | – | – | – | Odor Threshold (μg/l air) [1, 4]: 2.06E−03 μg/l air; Type [2, 5]: Top; Volatility (μg/l air) [2, 4]: 417.92 μg/l air |
| CC1(C)CCC[C@@]2(C)[C@H]1CC[C@@]1(C)OCC[C@@H]21 | 2.16E−03 μg/l air | Bottom | 9.23 μg/l air | – | – | – | – | – |
| COC(OC)C(C)(C)CC=C(C)C | 1.26E−02 μg/l air | Top | 1311.32 μg/l air | – | – | – | – | – |
| CC(C)=CC1CC(C)CCO1 (stereo not shown) | – | – | – | – | – | – | – | Odor Threshold (μg/l air) [1, 4]: 8.77E−04 μg/l air; Type [2, 5]: Top; Volatility (μg/l air) [2, 4]: 2483.93 μg/l air |
| CCC(=O)/C=C/C1=C(C)CCCC1(C)C | – | – | – | – | – | – | – | Odor Threshold [1, 6]: 1.16E−04 μg/l air; Odor Value [1, 6]: 1.37E+05; Odor Threshold ([1]; Table 9, gourmand note): 1.16E−04 μg/l air; Volatility [2, 6]: 15.81 μg/l air; Type ([2]; Table 8, perfuming compounds having a sweet note, note type by volatility): Bottom; Volatility ([2]; Table 9, gourmand note): 15.81 μg/l air; Type [2, 7]: Bottom |
| CC(=O)O[C@@H]1CC2CC[C@]1(C)C2(C)C | 4.46E−02 μg/l air | Top | 735.37 μg/l air | – | – | – | – | – |
| CCC(=O)O[C@H]1C[C@@H]2CC[C@@]1(C)C2(C)C | 4.55E−02 μg/l air | Top | 216.42 μg/l air | – | – | – | – | – |
| CC1(CO)CC1CC1CC2CC2(C)C1(C)C (stereo not shown) | 2.18E−06 μg/l air | Bottom | 1.74 μg/l air | – | – | – | – | – |
| CC(C)[C@@H]1CC[C@@H](C)CC1=NO | – | – | – | – | – | – | – | Odor Threshold (μg/l air) [1, 4]: 5.52E−05 μg/l air; Type [2, 5]: Bottom; Volatility (μg/l air) [2, 4]: 22.29 μg/l air |
| C=C/C=C/C=C\CCCCC | – | – | – | – | – | – | – | Odor Threshold (μg/l air) [1, 4]: 3.76E−05 μg/l air; Type [2, 5]: Top; Volatility (μg/l air) [2, 4]: 1247.28 μg/l air |
| C[C@@H]1CC[C@H]2[C@H](C)C(=O)O[C@@H]2C1 | – | – | – | – | – | – | – | Odor Threshold ([1]; Table 9, gourmand note): 3.46E−05 μg/l air; Volatility ([2]; Table 9, gourmand note): 74.03 μg/l air; Type [2, 7]: Middle |
| CC1=CCC(/C=C/C(C)C(C)O)C1(C)C (stereo not shown) | 9.56E−05 μg/l air | Bottom | 20.41 μg/l air | – | – | – | – | – |
| CCCCC[C@@H]1C(=O)CC[C@@H]1CC(=O)OC | 2.82E−04 μg/l air | Bottom | 1.71 μg/l air | – | – | – | – | – |
| C[C@@H]1CC[C@H]2C(C)(C)[C@H]3C[C@@]12C[C@@H]1OC(C)(C)O[C@@]13C | 3.90E−06 μg/l air | Bottom | 0.00 μg/l air | – | – | – | – | – |
| CC/C(=C\C[C@H]1CC=C(C)C1(C)C)CO | 2.41E−05 μg/l air | Bottom | 2.75 μg/l air | – | – | – | – | – |
| COC(C)(C)[C@H]1CC=C(C)CC1 | – | – | – | – | – | – | – | Odor Threshold (μg/l air) [1, 4]: 1.99E−01 μg/l air; Type [2, 5]: Top; Volatility (μg/l air) [2, 4]: 993.39 μg/l air |
| 3-(3,3-dimethyl-2,3-dihydro-1H-inden-5-yl)propanal (A) + 3-(1,1-dimethyl-2,3-dihydro-1H-inden-4-yl)propanal (B) + 3-(1,1-dimethyl-2,3-dihydro-1H-inden-5-yl)propanal (C) | – | – | – | 4.00E−03 μg/l air | 3.42E+03 | 13.68 μg/l air | bottom (perfuming compounds having a volatility ranging from 49 to 0.1 μg/l in air are referred to as “bottom notes”) | Odor Threshold (μg/l air) ([1]; Table 7, citrus note): 4.00E−03 μg/l air; Odor Value [1, 9]: 3.42E+03; Volatility (μg/l air) ([2]; Table 7, citrus note): 13.68 μg/l air; Type [2, 11]: Bottom |
| 3-(3,3-dimethyl-2,3-dihydro-1H-inden-5-yl)propanal (A) + 3-(1,1-dimethyl-2,3-dihydro-1H-inden-5-yl)propanal (B) | – | – | – | 1.32E−05 μg/l air | 1.04E+06 | 13.73 μg/l air | bottom (perfuming compounds having a volatility ranging from 49 to 0.1 μg/l in air are referred to as “bottom notes”) | – |
| 3-(4-ETHYLPHENYL)-2,2-DIMETHYLPROPANAL (A) + 3-(2-ETHYLPHENYL)-2,2-DIMETHYLPROPANAL (B) | – | – | – | 5.33E−03 μg/l air | 9.14E+03 | 48.69 μg/l air | bottom (perfuming compounds having a volatility ranging from 49 to 0.1 μg/l in air are referred to as “bottom notes”) | – |
| 8(9)-METHOXY-TRICYCLO[5.2.1.0(2,6)]DECANE-3(4)-CARBALDEHYDE | – | – | – | 4.02E−05 μg/l air | 1.46E+05 | 5.87 μg/l air | bottom (perfuming compounds having a volatility ranging from 49 to 0.1 μg/l in air are referred to as “bottom notes”) | Odor Threshold [1, 12]: 4.02E−05 μg/l air; Odor Value [1, 12]: 1.46E+05; Odor Threshold (μg/l air) ([1]; Table 7, citrus note): 4.02E−05 μg/l air; Odor Value [1, 9]: 1.46E+05; Volatility [2, 12]: 5.87 μg/l air; Type [2, 13]: Bottom; Volatility (μg/l air) ([2]; Table 7, citrus note): 5.87 μg/l air; Type [2, 11]: Bottom |
| 9-ETHYLIDENE-3-OXATRICYCLO[6.2.1.0(2,7)]UNDECAN-4-ONE (A) + 10-ETHYLIDENE-3-OXATRICYCLO[6.2.1.0(2,7)] . . . (B) | – | – | – | – | – | – | – | Odor Threshold (μg/l air) ([1]; Table 7, citrus note): 1.42E−04 μg/l air; Odor Value [1, 9]: 1.48E+04; Volatility (μg/l air) ([2]; Table 7, citrus note): 2.10 μg/l air; Type [2, 11]: Bottom |
| 10-undecenal (A) + (9E)-9-undecenal (B) + (9Z)-9-undecenal (C) | – | – | – | 3.77E−05 μg/l air | 3.50E+06 | 131.95 μg/l air | TOP (perfuming compounds having a volatility ranging from 70,000 to 100 μg/l in air are referred to as “top notes”) | – |
| CC(C)=CCCC1=CCC(C)(C=O)CC1 (racemic) | – | – | – | 2.72E−02 μg/l air | 9.76E+02 | 26.54 μg/l air | bottom (perfuming compounds having a volatility ranging from 49 to 0.1 μg/l in air are referred to as “bottom notes”) | – |
| Cc1ccc2c(c1)CC(C)(CO)C2 (racemic) | – | – | – | 1.28E−04 μg/l air | 3.79E+04 | 4.86 μg/l air | bottom (perfuming compounds having a volatility ranging from 49 to 0.1 μg/l in air are referred to as “bottom notes”) | – |
| CC(C)=CCCC(C)C=O (racemic) | – | – | – | 2.11E−04 μg/l air | 8.96E+06 | 1889.68 μg/l air | TOP (perfuming compounds having a volatility ranging from 70,000 to 100 μg/l in air are referred to as “top notes”) | Volatility [2, 12]: 1889.68 μg/l air; Type [2, 13]: TOP (perfuming compounds having a volatility ranging from 70,000 to 100 μg/l in air are referred to as “top notes”) |
| CC(C)=CCCC(C)CCCC(C)C=O (racemic) | – | – | – | 1.59E−02 μg/l air | 1.15E+03 | 18.23 μg/l air | bottom (perfuming compounds having a volatility ranging from 49 to 0.1 μg/l in air are referred to as “bottom notes”) | – |
